Laboratory results published in patent US6503449B1, “Process for the control of microbial contamination in water-based solids suspensions” (Ciba Specialty Chemicals Corporation, priority 1998, dated 2003).

Tests used:
Format in all cases: cell-based
Gram negative organisms = assay: Single/multiple pass through 2406 Nearfield Accoustical Processor with biocide, Nutrient Agar plates; conditions: 250 ppm; after one pass through the sonicator, 16 kHz and 20 kHz, 750 kg/hr; initial count 4.8×10^6 cfu per millilitre
From the text: (§1) A mixture of Pigment Red 23,215.5 parts, Emulan OG (RTM) (35% solution in water), 153.7 parts, tributyl phosphate, 2 parts, and water, 128.8 parts are dispersed by re-circulation through a Bachofen KDL200 bead-mill until colouristic properties are within specification of UNISPERSE (RTM) Red RBS-PI as detailed in Example 1 and adjusted to pH 8.0-8.5 with 20% sodium hydroxide solution. This material is identified as having a bacterial count of 4.8×10^6 colony-forming units (cfu) per millilitre comprised of a mixture of Gram positive and Gram negative bacteria. It is treated with 250 parts per million(ppm) of pentane 1,5-dialdehyde and pumped through a 2406 Nearfield Accoustical Processor sonicating at 16 kHz and 20 kHz respectively with a plate separation of 6 mm (approximately) at a flow rate of 750 kg/hr. Assessment bacterial activity is then done by spreading a sample of the pigment dispersion on Nutrient Agar(NA) plates and incubating at 30° C. for 48 hours. […] The temperature rise is 1° C. per pass, from a starting value of 20° C.

Gram positive organisms = assay: as above; conditions: 250 ppm; after four passes through the sonicator, 16 kHz and 20 kHz, 750 kg/hr; initial count 4.8×10^6 cfu per millilitre
From the text: as §1

[1] = system: Xanthomonas maltophilia and Pseudomonas mendocina; assay: Sonication of Pigment Red 53.1 dispersion with biocide, bacterial contamination check
From the text: A mixture of Pigment Red 23, available from Ciba Specialty Chemicals(UK) Ltd., 215.5 parts, Emulan OG (RTM) (35% solution in water), available from BASF, 153.7 parts, tributyl phosphate, available from Albright & Wilson, 2 parts, and water, 128.8 parts, are dispersed by re-circulation through a Bachofen KDL200 bead-mill until colouristic properties are within specification of UNISPERSE (RTM) Red RBS-PI, available from Ciba Specialty Chemicals(UK) Ltd., and adjusted to pH 8.0-8.5 with 20% sodium hydroxide solution. This material is identified as containing the Gram negative bacterium, Pseudomonas putida. 50 millilitre aliquots of this dispersion containing levels of glutaraldehyde (pentane-1,5-dialdehyde), available as the trade product Protectol GDA form BASF or Ucarcide from Union Carbide, between 0 parts per million (ppm) and 2000 ppm are sonicated using a Branson MSE sonicator with a 19 mm horn probe resonating at 20 kHz with an amplitude of 6 microns. Sonication is undertaken in a 100 millilitre glass beaker, diameter 38 mm, with magnetic flea agitator and cooled in a water/ice bath to maintain temperature at 28-32° C. Bacterial growth in each sample is assessed at 5 minute intervals by streaking each dispersion on to Nutrient Agar(NA) plates and incubating the plates for a minimum of 48 hours at 30° C. The plates are then examined for bacterial colonies and expressed according to the following notation:
A mixture of Pigment Red 53.1, available from S&D Chemicals Ltd., 37 parts, Emulan OG (35% solution), 25.9 parts, 2-ethylhexanoic acid, available from Barratt Chemicals Ltd., 3 parts tributyl phosphate, 0.3 parts, and water 31.74 parts are dispersed by a single pass through a Bachofen KDL Special beadmill containing 1.0 mm Yttrium-stabilised Zirconium Oxide beads. This material is identified as containing the Gram negative bacteria, Xanthomonas maltophilia and Pseudomonas mendocina. 50 millilitre aliquots of this dispersion are treated with pentane-1,5-dialdehyde (Ucarcide 250) and CIT/MIT mixture (Acticide LG) according to the process defined in Example 1 and each sample checked for bacterial contamination according to the following table: […]

`O=CCCCC=O` [glutaraldehyde, pentane-1,5-dialdehyde] was tested, and the “bacterial activity on Nutrient Agar plates, Gram negative organisms” value (Gram negative organisms) was “no Gram negative organisms are evident”, the “bacterial activity on Nutrient Agar plates, Gram positive organisms” value (Gram positive organisms) was “no Gram positive organisms are found” and the bacterial contamination ([1]; 500 ppm Ucarcide 250, 3 days after sonication) was “+++ (heavy contamination(>10^5 cfu/ml))”. The bacterial contamination ([1]; 500 ppm Ucarcide 250, 7 days after sonication) was “+++ (heavy contamination(>10^5 cfu/ml))”, the bacterial contamination ([1]; 500 ppm Ucarcide 250, 14 days after sonication) was “+++ (heavy contamination(>10^5 cfu/ml))” and the bacterial contamination ([1]; 500 ppm Ucarcide 250, 28 days after sonication) was “+++ (heavy contamination(>10^5 cfu/ml))”. The bacterial contamination ([1]; 500 ppm Ucarcide 250, 90 days after sonication) was “+++ (heavy contamination(>10^5 cfu/ml))”, the bacterial contamination ([1]; 500 ppm Ucarcide 250, sonicated 0 mins.) was “+++ (heavy contamination(>10^5 cfu/ml))” and the bacterial contamination ([1]; 500 ppm Ucarcide 250, sonicated 5 mins.) was “+++ (heavy contamination(>10^5 cfu/ml))”. The bacterial contamination ([1]; 500 ppm Ucarcide 250, sonicated 10 mins.) was “+++ (heavy contamination(>10^5 cfu/ml))”, the bacterial contamination ([1]; 500 ppm Ucarcide 250, sonicated 15 mins.) was “+++ (heavy contamination(>10^5 cfu/ml))” and the bacterial contamination ([1]; 500 ppm Ucarcide 250, sonicated 20 mins.) was “+++ (heavy contamination(>10^5 cfu/ml))”. For the same molecule, the bacterial contamination ([1]; 500 ppm Ucarcide 250, sonicated 25 mins.) was “+++ (heavy contamination(>10^5 cfu/ml))”, the bacterial contamination ([1]; 500 ppm Ucarcide 250, sonicated 30 mins.) was “++ (moderate contamination(10^3-10^5 cfu/ml))” and the bacterial contamination ([1]; 500 ppm Ucarcide 250, sonicated 35 mins.) was “++ (moderate contamination(10^3-10^5 cfu/ml))”. The bacterial contamination ([1]; 500 ppm Ucarcide 250, sonicated 40 mins.) was “++ (moderate contamination(10^3-10^5 cfu/ml))”, the bacterial contamination ([1]; 500 ppm Ucarcide 250, sonicated 45 mins.) was “++ (moderate contamination(10^3-10^5 cfu/ml))” and the bacterial contamination ([1]; 500 ppm Ucarcide 250, sonicated 50 mins.) was “++ (moderate contamination(10^3-10^5 cfu/ml))”. For the same molecule, the bacterial contamination ([1]; 500 ppm Ucarcide 250, sonicated 55 mins.) was “+ (light contamination (10^0 and 10^3 cfu/ml))”, the bacterial contamination ([1]; 500 ppm Ucarcide 250, sonicated 60 mins.) was “+ (light contamination (10^0 and 10^3 cfu/ml))” and the bacterial contamination ([1]; 750 ppm Ucarcide 250, 3 days after sonication) was “+++ (heavy contamination(>10^5 cfu/ml))”. For the same molecule, the bacterial contamination ([1]; 750 ppm Ucarcide 250, 7 days after sonication) was “+++ (heavy contamination(>10^5 cfu/ml))”, the bacterial contamination ([1]; 750 ppm Ucarcide 250, 14 days after sonication) was “+++ (heavy contamination(>10^5 cfu/ml))” and the bacterial contamination ([1]; 750 ppm Ucarcide 250, 28 days after sonication) was “+++ (heavy contamination(>10^5 cfu/ml))”. The bacterial contamination ([1]; 750 ppm Ucarcide 250, 90 days after sonication) was “+++ (heavy contamination(>10^5 cfu/ml))”, the bacterial contamination ([1]; 750 ppm Ucarcide 250, sonicated 0 mins.) was “+++ (heavy contamination(>10^5 cfu/ml))” and the bacterial contamination ([1]; 750 ppm Ucarcide 250, sonicated 5 mins.) was “+++ (heavy contamination(>10^5 cfu/ml))”. The bacterial contamination ([1]; 750 ppm Ucarcide 250, sonicated 10 mins.) was “+++ (heavy contamination(>10^5 cfu/ml))”, the bacterial contamination ([1]; 750 ppm Ucarcide 250, sonicated 15 mins.) was “+++ (heavy contamination(>10^5 cfu/ml))” and the bacterial contamination ([1]; 750 ppm Ucarcide 250, sonicated 20 mins.) was “+++ (heavy contamination(>10^5 cfu/ml))”. The bacterial contamination ([1]; 750 ppm Ucarcide 250, sonicated 25 mins.) was “+++ (heavy contamination(>10^5 cfu/ml))”, the bacterial contamination ([1]; 750 ppm Ucarcide 250, sonicated 30 mins.) was “++ (moderate contamination(10^3-10^5 cfu/ml))” and the bacterial contamination ([1]; 750 ppm Ucarcide 250, sonicated 35 mins.) was “++ (moderate contamination(10^3-10^5 cfu/ml))”. The bacterial contamination ([1]; 750 ppm Ucarcide 250, sonicated 40 mins.) was “++ (moderate contamination(10^3-10^5 cfu/ml))”, the bacterial contamination ([1]; 750 ppm Ucarcide 250, sonicated 45 mins.) was “++ (moderate contamination(10^3-10^5 cfu/ml))” and the bacterial contamination ([1]; 750 ppm Ucarcide 250, sonicated 50 mins.) was “+ (light contamination (10^0 and 10^3 cfu/ml))”. For the same molecule, the bacterial contamination ([1]; 750 ppm Ucarcide 250, sonicated 55 mins.) was “+ (light contamination (10^0 and 10^3 cfu/ml))”, the bacterial contamination ([1]; 750 ppm Ucarcide 250, sonicated 60 mins.) was “+ (light contamination (10^0 and 10^3 cfu/ml))” and the bacterial contamination ([1]; 1000 ppm Ucarcide 250, 3 days after sonication) was “+++ (heavy contamination(>10^5 cfu/ml))”. The bacterial contamination ([1]; 1000 ppm Ucarcide 250, 7 days after sonication) was “+++ (heavy contamination(>10^5 cfu/ml))”, the bacterial contamination ([1]; 1000 ppm Ucarcide 250, 14 days after sonication) was “+++ (heavy contamination(>10^5 cfu/ml))” and the bacterial contamination ([1]; 1000 ppm Ucarcide 250, 28 days after sonication) was “+++ (heavy contamination(>10^5 cfu/ml))”. The bacterial contamination ([1]; 1000 ppm Ucarcide 250, 90 days after sonication) was “+++ (heavy contamination(>10^5 cfu/ml))”, the bacterial contamination ([1]; 1000 ppm Ucarcide 250, sonicated 0 mins.) was “+++ (heavy contamination(>10^5 cfu/ml))” and the bacterial contamination ([1]; 1000 ppm Ucarcide 250, sonicated 5 mins.) was “+++ (heavy contamination(>10^5 cfu/ml))”. The bacterial contamination ([1]; 1000 ppm Ucarcide 250, sonicated 10 mins.) was “+++ (heavy contamination(>10^5 cfu/ml))”, the bacterial contamination ([1]; 1000 ppm Ucarcide 250, sonicated 15 mins.) was “+++ (heavy contamination(>10^5 cfu/ml))” and the bacterial contamination ([1]; 1000 ppm Ucarcide 250, sonicated 20 mins.) was “++ (moderate contamination(10^3-10^5 cfu/ml))”. The bacterial contamination ([1]; 1000 ppm Ucarcide 250, sonicated 25 mins.) was “++ (moderate contamination(10^3-10^5 cfu/ml))”, the bacterial contamination ([1]; 1000 ppm Ucarcide 250, sonicated 30 mins.) was “+ (light contamination (10^0 and 10^3 cfu/ml))” and the bacterial contamination ([1]; 1000 ppm Ucarcide 250, sonicated 35 mins.) was “+ (light contamination (10^0 and 10^3 cfu/ml))”. For the same molecule, the bacterial contamination ([1]; 1000 ppm Ucarcide 250, sonicated 40 mins.) was “+ (light contamination (10^0 and 10^3 cfu/ml))”, the bacterial contamination ([1]; 1000 ppm Ucarcide 250, sonicated 45 mins.) was “+ (light contamination (10^0 and 10^3 cfu/ml))” and the bacterial contamination ([1]; 1000 ppm Ucarcide 250, sonicated 50 mins.) was “+ (light contamination (10^0 and 10^3 cfu/ml))”. For the same molecule, the bacterial contamination ([1]; 1000 ppm Ucarcide 250, sonicated 55 mins.) was “+ (light contamination (10^0 and 10^3 cfu/ml))”, the bacterial contamination ([1]; 1000 ppm Ucarcide 250, sonicated 60 mins.) was “+ (light contamination (10^0 and 10^3 cfu/ml))” and the bacterial contamination ([1]; 1500 ppm Ucarcide 250, 3 days after sonication) was “+++ (heavy contamination(>10^5 cfu/ml))”. For the same molecule, the bacterial contamination ([1]; 1500 ppm Ucarcide 250, 7 days after sonication) was “+++ (heavy contamination(>10^5 cfu/ml))”, the bacterial contamination ([1]; 1500 ppm Ucarcide 250, 14 days after sonication) was “+++ (heavy contamination(>10^5 cfu/ml))” and the bacterial contamination ([1]; 1500 ppm Ucarcide 250, 28 days after sonication) was “+++ (heavy contamination(>10^5 cfu/ml))”. For the same molecule, the bacterial contamination ([1]; 1500 ppm Ucarcide 250, 90 days after sonication) was “+++ (heavy contamination(>10^5 cfu/ml))”, the bacterial contamination ([1]; 1500 ppm Ucarcide 250, sonicated 0 mins.) was “+++ (heavy contamination(>10^5 cfu/ml))” and the bacterial contamination ([1]; 1500 ppm Ucarcide 250, sonicated 5 mins.) was “+++ (heavy contamination(>10^5 cfu/ml))”. The bacterial contamination ([1]; 1500 ppm Ucarcide 250, sonicated 10 mins.) was “+++ (heavy contamination(>10^5 cfu/ml))”, the bacterial contamination ([1]; 1500 ppm Ucarcide 250, sonicated 15 mins.) was “+++ (heavy contamination(>10^5 cfu/ml))” and the bacterial contamination ([1]; 1500 ppm Ucarcide 250, sonicated 20 mins.) was “++ (moderate contamination(10^3-10^5 cfu/ml))”. For the same molecule, the bacterial contamination ([1]; 1500 ppm Ucarcide 250, sonicated 25 mins.) was “+ (light contamination (10^0 and 10^3 cfu/ml))”, the bacterial contamination ([1]; 1500 ppm Ucarcide 250, sonicated 30 mins.) was “+ (light contamination (10^0 and 10^3 cfu/ml))” and the bacterial contamination ([1]; 1500 ppm Ucarcide 250, sonicated 35 mins.) was “+ (light contamination (10^0 and 10^3 cfu/ml))”. For the same molecule, the bacterial contamination ([1]; 1500 ppm Ucarcide 250, sonicated 40 mins.) was “+ (light contamination (10^0 and 10^3 cfu/ml))”, the bacterial contamination ([1]; 1500 ppm Ucarcide 250, sonicated 45 mins.) was “+ (light contamination (10^0 and 10^3 cfu/ml))” and the bacterial contamination ([1]; 1500 ppm Ucarcide 250, sonicated 50 mins.) was “+ (light contamination (10^0 and 10^3 cfu/ml))”. For the same molecule, the bacterial contamination ([1]; 1500 ppm Ucarcide 250, sonicated 55 mins.) was “+ (light contamination (10^0 and 10^3 cfu/ml))” and the bacterial contamination ([1]; 1500 ppm Ucarcide 250, sonicated 60 mins.) was “+ (light contamination (10^0 and 10^3 cfu/ml))”.
